The term IC50 denotes the concentration that inhibits the measured activity by half.

Experimental findings from patent publication US9884048B2, “ERK inhibitors” (Merck Sharp & Dohme Corp., priority 2014, dated 2018) are described below.

For the assay, the target named is phosphorylated active hERK2 enzyme (Homo sapiens (Human), UniProt P28482).
The mark [1] stands for this setting: read-out: ERK2 IC50, IMAP-FP assay, 0.5 nM hERK2, 30 μM ATP, 10 point titration, 3 μM starting concentration.

The structures appear in SMILES notation. Read-outs that look alike come from different tables or passages of the source.

Sequence of phosphorylated active hERK2 enzyme (P28482 whole entry): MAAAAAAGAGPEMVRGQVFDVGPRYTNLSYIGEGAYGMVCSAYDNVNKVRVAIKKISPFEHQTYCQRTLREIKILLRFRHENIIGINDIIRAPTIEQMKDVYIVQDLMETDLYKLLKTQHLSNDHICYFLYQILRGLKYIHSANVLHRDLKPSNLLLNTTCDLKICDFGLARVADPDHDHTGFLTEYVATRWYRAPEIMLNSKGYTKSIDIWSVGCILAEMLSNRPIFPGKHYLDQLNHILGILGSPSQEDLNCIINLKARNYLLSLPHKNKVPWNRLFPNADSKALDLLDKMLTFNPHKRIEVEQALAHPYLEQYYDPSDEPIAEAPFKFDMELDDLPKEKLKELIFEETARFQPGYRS

`Cc1cc(-n2ncc3cc(NC(=O)N[C@@H](c4ccccc4)C(C)(C)O)nc(CO)c32)ccn1` [Example 254, 1-[7-(hydroxymethyl)-1-(2-methylpyridin-4-yl)-1H-pyrazolo[3,4-c]pyridin-5-yl]-3-[(1S)-2-hydroxy-2-methyl-1-phenylpropyl]urea] displayed an IC50 of 4.29 nM.
For the compound `C[C@@H](NC(=O)Nc1cc2cnn(C(C)(C)C)c2c(CO)n1)c1ccccc1` [Example 255, 1-[1-tert-butyl-7-(hydroxymethyl)-1H-pyrazolo[3,4-c]pyridin-5-yl]-3-[(1R)-1-phenylethyl]urea], the IC50 under setting [1] worked out at 1260 nM.
With `CCn1ncc2cc(NC(=O)N[C@H](C)c3ccccc3)nc(OC)c21` [Example 256, 1-(1-ethyl-7-methoxy-1H-pyrazolo[3,4-c]pyridin-5-yl)-3-[(1R)-1-phenylethyl]urea], under setting [1], the 50% inhibitory concentration (IC50) is 100 nM.
For the compound `CCn1ncc2cc(NC(=O)N[C@@H](c3ccccc3)C(C)(C)O)nc(OC)c21` [Example 257, 1-(1-ethyl-7-methoxy-1H-pyrazolo[3,4-c]pyridin-5-yl)-3-[(1S)-2-hydroxy-2-methyl-1-phenylpropyl]urea], the half-maximal inhibitory concentration (IC50) under setting [1] came out at 44.9 nM.
`CCn1ncc2cc(NC(=O)N[C@H](C)c3ccccc3)nc(OCCO)c21` [Example 258, 1-[1-ethyl-7-(2-hydroxyethoxy)-1H-pyrazolo[3,4-c]pyridin-5-yl]-3-[(1R)-1-phenylethyl]urea]: the IC50 under setting [1] stood at 35.3 nM.
With `COC[C@@H](NC(=O)Nc1cc2cnn(C3CCOCC3)c2cn1)c1ccccc1` [Example 259, (S)-1-(2-methoxy-1-phenylethyl)-3-(1-(tetrahydro-2H-pyran-4-yl)-1H-pyrazolo[3,4-c]pyridin-5-yl)urea], the IC50 under setting [1] is 196 nM.
Same read-out and setting: the same measure for `COC[C@@H](NC(=O)Nc1cc2cnn(Cc3ccncc3)c2cn1)c1ccccc1` [Example 260, 1-[(1S)-2-methoxy-1-phenylethyl]-3-[1-(pyridin-4-ylmethyl)-1H-pyrazolo[3,4-c]pyridin-5-yl]urea]: 30.9 nM; for `O=C(Nc1cc2cnn(Cc3ccncc3)c2cn1)N[C@H](CO)c1ccccc1` [Example 261, 1-[(1S)-2-hydroxy-1-phenylethyl]-3-[1-(pyridin-4-ylmethyl)-1H-pyrazolo[3,4-c]pyridin-5-yl]urea]: 2430 nM.
In the case of `CO[C@@H]1CN(Cc2cccnc2)C[C@H]1NC(=O)Nc1cc2cnn(-c3ccnc(C)c3)c2cn1` [Example 262, 1-((3R,4R)-4-methoxy-1-(pyridin-3-ylmethyl)pyrrolidin-3-yl)-3-(1-(2-methylpyridin-4-yl)-1H-pyrazolo[3,4-c]pyridin-5-yl)urea], the half-inhibitory concentration (IC50) under setting [1] came to 253 nM.
On to `Cc1cc(-n2ncc3cc(NC(=O)NCC4CNC4)ncc32)ccn1` [Example 263, 1-(azetidin-3-ylmethyl)-3-(1-(2-methylpyridin-4-yl)-1H-pyrazolo[3,4-c]pyridin-5-yl)urea], for which, under setting [1], the 50% inhibitory concentration (IC50) was found to be 102 nM.
On the same count and under the same terms, the same measure for `Cc1cc(-n2ncc3cc(NC(=O)NCC4CN(C)C4)ncc32)ccn1` [Example 264, 1-((1-methylazetidin-3-yl)methyl)-3-(1-(2-methylpyridin-4-yl)-1H-pyrazolo[3,4-c]pyridin-5-yl)urea]: 70 nM; for `Cc1cc(-n2ncc3cc(NC(=O)NC4CCCN(Cc5cccnc5)C4)ncc32)ccn1` (stereo not drawn) [Example 265]: 115 nM.
`Cc1cc(-n2ncc3cc(NC(=O)NC4CCCN(Cc5c(F)cccc5F)C4)ncc32)ccn1` (stereo not drawn) [Example 266, 1-[1-(2,6-difluorobenzyl)piperidin-3-yl]-3-[1-(2-methylpyridin-4-yl)-1H-pyrazolo[3,4-c]pyridin-5-yl]urea]: under setting [1], the IC50 is 2.78 nM.
Turning to `Cc1cc(-n2ncc3cc(NC(=O)NC4CCCN(Cc5nccs5)C4)ncc32)ccn1` (stereo not drawn) [Example 267, 1-[1-(2-methylpyridin-4-yl)-1H-pyrazolo[3,4-c]pyridin-5-yl]-3-[1-(1,3-thiazol-2-ylmethyl)piperidin-3-yl]urea], the half-inhibitory concentration (IC50) under setting [1] was 22.2 nM.
Still for that read-out and setting: under `Cc1cc(-n2ncc3cc(NC(=O)NC4CCCN(Cc5cccnc5Cl)C4)ncc32)ccn1` (stereo not drawn) [Example 268, 1-{1-[(2-chloropyridin-3-yl)methyl]piperidin-3-yl}-3-[1-(2-methylpyridin-4-yl)-1H-pyrazolo[3,4-c]pyridin-5-yl]urea] stands 18.6 nM; under `CO[C@H]1CN(Cc2c(F)cccc2F)C[C@@H]1NC(=O)Nc1cc2cnn(-c3ccnc(C)c3)c2cn1` [Example 269, 1-[(3S,4S)-1-(2,6-difluorobenzyl)-4-methoxypyrrolidin-3-yl]-3-[1-(2-methylpyridin-4-yl)-1H-pyrazolo[3,4-c]pyridin-5-yl]urea], 5.39 nM; under `Cc1cc(-n2ncc3cc(NC(=O)NC4CCN(Cc5cccnc5)C4)ncc32)ccn1` (stereo not drawn) [Example 270, 1-[1-(2-methylpyridin-4-yl)-1H-pyrazolo[3,4-c]pyridin-5-yl]-3-[1-(pyridin-3-ylmethyl)-pyrrolidin-3-yl]urea], 45.3 nM.
On the same count and under the same terms, under `Cc1cc(-n2ncc3cc(NC(=O)NC4CCN(Cc5c(F)cccc5F)C4)ncc32)ccn1` (stereo not drawn) [Example 271, 1-[1-(2,6-difluorobenzyl)pyrrolidin-3-yl]-3-[1-(2-methylpyridin-4-yl)-1H-pyrazolo[3,4-c]pyridin-5-yl]urea] stands 0.997 nM.
As to `CCO[C@H]1CNC[C@@H]1NC(=O)Nc1cc2cnn(-c3ccnc(C)c3)c2cn1` [Example 272, 1-[(3S,4S)-4-ethoxypyrrolidin-3-yl]-3-[1-(2-methylpyridin-4-yl)-1H-pyrazolo[3,4-c]pyridin-5-yl]urea], the half-maximal inhibitory concentration (IC50) under setting [1] is 39.9 nM.
On the same count and under the same terms, under `Cc1cc(-n2ncc3cc(NC(=O)N[C@H]4CNC[C@@H]4Oc4cncc(F)c4)ncc32)ccn1` [Example 275, 1-{(3S,4S)-4-[(5-fluoropyridin-3-yl)oxy]pyrrolidin-3-yl}-3-[1-(2-methylpyridin-4-yl)-1H-pyrazolo[3,4-c]pyridin-5-yl]urea] stands 327 nM; under `Cc1cc(-n2ncc3cc(NC(=O)N[C@H]4CN(C)C[C@@H]4Oc4cncc(F)c4)ncc32)ccn1` [Example 276, 1-{(3S,4S)-4-[(5-fluoropyridin-3-yl)oxy]-1-methylpyrrolidin-3-yl}-3-[1-(2-methylpyridin-4-yl)-1H-pyrazolo[3,4-c]pyridin-5-yl]urea], 242 nM.
`CCN1C[C@H](NC(=O)Nc2cc3cnn(-c4ccnc(C)c4)c3cn2)[C@@H](Oc2cncc(F)c2)C1` [Example 277, 1-{(3S,4S)-1-ethyl-4-[(5-fluoropyridin-3-yl)oxy]pyrrolidin-3-yl}-3-[1-(2-methylpyridin-4-yl)-1H-pyrazolo[3,4-c]pyridin-5-yl]urea]: under setting [1], the IC50 is 594 nM.
In the case of `CCO[C@H]1CN(Cc2c(F)cccc2F)C[C@@H]1NC(=O)Nc1cc2cnn(-c3ccnc(C)c3)c2cn1` [Example 278, 1-[(3S,4S)-1-(2,6-difluorobenzyl)-4-ethoxypyrrolidin-3-yl]-3-[1-(2-methylpyridin-4-yl)-1H-pyrazolo[3,4-c]pyridin-5-yl]urea], the half-inhibitory concentration (IC50) under setting [1] was determined as 45.3 nM.
For the compound `CCO[C@H]1CN(Cc2ccccc2C(F)(F)F)C[C@@H]1NC(=O)Nc1cc2cnn(-c3ccnc(C)c3)c2cn1` [Example 279, 1-{(3S,4S)-4-ethoxy-1-[2-(trifluoromethyl)benzyl]pyrrolidin-3-yl}-3-[1-(2-methylpyridin-4-yl)-1H-pyrazolo[3,4-c]pyridin-5-yl]urea], the half-maximal inhibitory concentration (IC50) under setting [1] was determined as 1750 nM.
